In patent publication US12582680B2, “Pharmaceutical composition for prevention, amelioration, or treatment of skin disease” (priority 2019, dated 2026):

How the values were obtained:
SPF-Tmem79-KO mouse = assay: Antibiotic in drinking water, dermatitis clinical scores of SPF-Tmem79-KO mouse; type: in vivo; conditions: 200 mg/mL in drinking water; FIG. 9B
Method: For the SPF-Tmem79-KO mouse and the control (SPF-WT mice), the clinical scores were evaluated on a 4-point scale of 0: normal, 1: mild, 2: moderate, and 3: severe for each of the four items of erythema, edema, erosion, and dryness. The degree of inflammation in the skin was evaluated by using the total value of the clinical scores of the four items. In the drawing, the SPF-Tmem79-KO mouse is described as “SPF Tmem79^−/−”, and the SPF-WT mouse is described as “SPF WT”. It can be understood that the SPF-Tmem79-KO mouse developed bimodal dermatitis.
Ampicillin (manufactured by NACALAI TESQUE, INC.) or fusidic acid (manufactured by Sigma-Aldrich Co. LLC.) was suspended in drinking water so as to be 200 mg/mL and the resultant drinking water was administered to the SPF-Tmem79-KO mouse, and the clinical scores were obtained with time.

S. aureus = assay: Sensitivity to antibiotics, culture of skin bacteria in media containing antibiotics, number of colonies; type: cell-based; conditions: FIGS. 9C and 9D
Source text: (§1) FIG. 9A is a schematic diagram showing an experimental flow. FIG. 9B is a graph that indicates changes over time of clinical scores in the skins of SPF-Tmem79^−/− mice inoculated with ampicillin (Amp) or fusidic acid (FA) being an antibiotic (ABx).
(§2) Further, the sensitivity of S. aureus and S. cohnii to both antibiotics was verified by using the antibiotics. The proliferation of S. aureus was suppressed by any one of the ampicillin and the fusidic acid (FIGS. 9C and 9D).

S. cohnii = assay: as above; type: cell-based; conditions: FIGS. 9C and 9E
Source text: as §1, §2

[1] = test system: GF-WT mouse applied with imiquimod; assay: Imiquimod-initiated inflammation in GF-WT mouse, squalene and mifepristone; type: in vivo
Method: Imiquimod (Beselna cream, manufactured by MOCHIDA PHARMACEUTICAL CO., LTD.) was applied onto the ears of a GF-WT mouse at a dose of 50 mg per mouse once a day for 5 consecutive days.
Further, in another group of mice, mifepristone (M8046-1G, manufactured by Sigma-Aldrich Co. LLC) was administered to the mice freely at 210 μg/mL in drinking water during the experimental period.

[2] = mifepristone 210 μg/mL in drinking water

| Structure (SMILES) | degree of dermatitis (clinical scores) (SPF-Tmem79-KO mouse) | proliferation of S. aureus (S. aureus) | proliferation of S. cohnii (S. cohnii) | suppression of imiquimod-initiated inflammation by S. cohnii, effect of mifepristone [1, 2] | suppression of imiquimod-initiated inflammation by squalene, effect of mifepristone [1, 2] | imiquimod-initiated inflammation (ear swelling and lymph node swelling) ([1]; S. cohnii 2.0×10^7 CFU first 3 days, squalene 200 μl per mouse for 5 days, FIGS. 22B and 22C) |
| --- | --- | --- | --- | --- | --- | --- |
| CC1(C)S[C@@H]2[C@H](NC(=O)[C@H](N)c3ccccc3)C(=O)N2[C@H]1C(=O)O [ampicillin] | alleviation of the dermatitis was not observed | suppressed | significantly suppressed |  |  |  |
| CC(=O)O[C@H]1C[C@@]2(C)[C@@H](C[C@@H](O)[C@H]3[C@@]4(C)CC[C@@H](O)[C@@H](C)[C@@H]4CC[C@@]32C)/C1=C(\CCC=C(C)C)C(=O)O [fusidic acid] | alleviated | suppressed | not suppressed |  |  |  |
| CC#C[C@]1(O)CC[C@H]2[C@@H]3CCC4=CC(=O)CCC4=C3[C@@H](c3ccc(N(C)C)cc3)C[C@@]21C [mifepristone] |  |  |  | inhibited | inhibition of suppressive effect |  |
| CC(C)=CCC/C(C)=C/CC/C(C)=C/CC/C=C(\C)CC/C=C(\C)CCC=C(C)C [squalene] |  |  |  |  |  | almost the same as that of S. cohnii |
